From US20080096989A1, “Flame Retardant Expanded Polystyrene Foam Compositions” (ALBEMARLE CORPORATION, priority 2004, published 2008)

Experiment: Thermal HBr Measurement Test (thermal stability)
Type: physicochemical
Settings: heated about 15 minutes at about 220° C. under nitrogen; average of duplicate; lower = more thermally stable
Method: The thermal stability of N,2-3-dibromopropyl-4,5-dibromohexahydrophthalimde (“compound (I)”) used in accordance with the present invention was evaluated using the Thermal HBr Measurement Test.
First, a sample of from about 0.5 to about 1.0 g flame retardant was weighed into a three neck 50 mL round bottom flask. Teflon tubing was then attached to one of the openings in the flask. Nitrogen was fed into the flask through the Teflon tubing at a flow rate of about 0.5 SCFH. A small reflux condenser was attached to another opening on the flask. The third opening was plugged. An about 50 vol % solution of glycol in water at a temperature of about 85° C. was run through the reflux condenser. Viton tubing was attached to the top of the condenser and to a gas-scrubbing bottle. Two more bottles were attached in series to the first. All three bottles had about 90 mL of about 0.1 N NaOH solutions. After assembling the apparatus, the nitrogen was allowed to purge through the system for about 2 minutes. The round bottom flask was then placed into an oil bath at about 220° C. and the sample was heated for about 15 minutes. The flask was then removed from the oil bath and the nitrogen was allowed to purge for about 2 minutes. The contents of the three gas scrubbing bottles were transferred to a 600 mL beaker. The bottles and viton tubing were rinsed into the beaker. […]

O=C1C2CC(Br)C(Br)CC2C(=O)N1CC(Br)CBr (stereo not shown) [compound I, N,2-3-dibromopropyl-4,5-dibromohexahydrophthalimde]
HBr (ppm): 2,058 ppm
